{
  "source": "paper PMC5590679",
  "about": "(Journal of medicinal chemistry, 2017)",
  "key": {"[1]": {"test_system": "Mtb BioA underexpression strain (BioA-UE)", "test": "microbe, parasite or virus in culture", "format": "cell-based, Mycobacterium tuberculosis"}, "[2]": {"test_system": "Mtb H37Rv", "test": "microbe, parasite or virus in culture", "format": "cell-based, Mycobacterium tuberculosis", "settings": "for MIC50 WT+biotin: Mtb H37Rv with 1 μM supplemental biotin; for MIC: Mycobacterium tuberculosis, H37RV"}, "[3]": {"test_system": "Mtb H37Rv", "settings": "cited from earlier work"}, "[4]": {"settings": "MIC that results in 50% inhibition"}},
  "note": "Read-outs that look alike come from different tables or passages of the source.",
  "data": [
    {"molecule": "CC(=O)c1ccc(N2CCN(C(=O)c3ccc4c(c3)OCO4)CC2)cc1", "note": "[Compound 6, 1-(4-(4-(Benzo[d][1,3]dioxole-5-carbonyl)piperazin-1-yl)phenyl)-ethanone]", "values": [
      {"measurement": "MIC", "setting": "[1]; Mycobacterium tuberculosis, read-out: MIC that results in 90% inhibition, BioA-UE", "value": 1.7, "unit": "µM"},
      {"measurement": "MIC50 WT+biotin", "setting": "[2]; [4]", "value": ">50", "unit": "µM"},
      {"measurement": "MIC", "setting": "[2]; read-out: MIC that results in 90% inhibition, WT+biotin", "value": "> 50", "unit": "µM"},
      {"measurement": "MIC", "setting": "[2]; read-out: MIC that results in 90% inhibition, WT-biotin", "value": 23.4, "unit": "µM"},
      {"measurement": "activity against whole-cell Mtb in biotin-supplemented medium", "setting": "[3]", "value": "no observed activity"}
    ]},
    {"molecule": "CC(=O)c1ccc(N2CCN(C(=O)c3ccc(Cl)c(Cl)c3)CC2)cc1", "note": "[Compound 9, 1-(4-(4-(3,4-Dichlorobenzoyl)piperazin-1-yl)phenyl)ethanone]", "values": [
      {"measurement": "fold loss in potency against WT Mtb", "setting": "[2]; biotin-free medium, relative to 6", "value": 2, "unit": "fold"}
    ]},
    {"molecule": "CC(=O)c1cccc(N2CCN(C(=O)c3cccc(Cl)c3)CC2)c1", "note": "[Compound 30, 1-(3-(4-(3-Chlorobenzoyl)piperazin-1-yl)phenyl)ethanone]", "values": [
      {"measurement": "fold loss in activity compared to para-acetyl 12", "setting": "[2]", "value": "10–50 fold"}
    ]},
    {"molecule": "O=C1CCc2cc(N3CCN(C(=O)c4ccc5c(c4)OCO5)CC3)ccc21", "note": "[Compound 36, 5-(4-(Benzo[d][1,3]dioxole-5-carbonyl)piperazin-1-yl)-2,3-dihydro-1H-inden-1-one]", "values": [
      {"measurement": "MIC", "setting": "[2]; read-out: minimum inhibitory concentration (MIC) against WT Mtb", "value": 1.7, "unit": "µM"}
    ]},
    {"molecule": "CC(=O)c1ccc(-c2cn(Cc3cccc(Cl)c3)nn2)cc1", "note": "[Compound 37, 1-(4-(1-(3-Chlorobenzyl)-1H-1,2,3-triazol-4-yl)phenyl)ethanone]", "values": [
      {"measurement": "antitubercular activity (in words)", "setting": "[2]", "value": "inactive"}
    ]},
    {"molecule": "CC(=O)c1ccc(-c2cn(Cc3cccc(Cl)c3)nn2)s1", "note": "[Compound 38, 1-(5-(1-(3-Chlorobenzyl)-1H-1,2,3-triazol-4-yl)thiophen-2-yl)-ethanone]", "values": [
      {"measurement": "antitubercular activity (in words)", "setting": "[2]", "value": "inactive"}
    ]},
    {"molecule": "CC(=O)c1ccc(N2CCC(C(=O)c3ccc4c(c3)OCO4)CC2)cc1", "note": "[Compound 40, 1-(4-(4-(Benzo[d][1,3]dioxole-5-carbonyl)piperidin-1-yl)phenyl)-ethanone]", "values": [
      {"measurement": "antitubercular activity (in words)", "setting": "[2]", "value": "completely inactive"}
    ]},
    {"molecule": "(3-Chlorophenyl)(4-(5-methoxypyridin-2-yl)piperazin-1-yl)-methanone [Compound 22]", "values": [
      {"measurement": "MIC50 BioA-UE", "setting": "[1]; MIC that results in 50% inhibition, […]", "value": 24.4, "unit": "µM"},
      {"measurement": "MIC50 WT+biotin", "setting": "[2]; [4]", "value": ">50", "unit": "µM"},
      {"measurement": "MIC50 WT-biotin", "setting": "[2]; MIC that results in 50% inhibition, Mtb H37Rv without supplemental biotin", "value": 22.0, "unit": "µM"}
    ]}
  ]
}
